Test in all cases: NCI tumour cell line growth inhibition, 48 h
Assay [1] concerns SF-539 CNS.
The subject of assay [2] is SK-MEL-5 melanoma.
For assay [3], the system named is NCI-H522 lung.
The subject of assay [4] is OVCAR-4 ovarian.
Assay [5] relates to HCT-116 colon.
In assay [6] the test system is U251 CNS.
For assay [7], the system named is CAKI-1 renal.
Assay [8] deals with DU-145 prostate.
The test system of assay [9] is NCI/ADR-RES ovarian.

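Dose response: 5 concentrations. Exposure: 48 h. Format: 96-well plates. Endpoint: linear interpolation; highest concentration if not reached. GI50 = concentration required for 50% inhibition of growth. TGI denotes the concentration required for complete inhibition of growth.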

Take `C1C[OH+]CC[OH+]CCNCC[OH+]CC[OH+]CCN1.N.[Cl-].[Pt+4]`: the GI50 is 3.95 µM in [1]; 10.3 µM in [2]; 12.9 µM in assay [3]; 2.84 µM in assay [4]; 10.1 µM in assay [5]; 7.19 µM in assay [6]. Moreover, the GI50 in [7] is 7.5 µM. The TGI in assay [1] is 19.6 µM; in [2], 25.3 µM; in assay [3] it was 48.1 µM; in assay [4] it was 11.6 µM; in [5] it was 65.8 µM; in assay [6], over 100 µM. Further, in assay [7], the TGI was 37.8 µM.

As for `N#C/C(=C\c1ccc(O)c(O)c1)C(N)=S`, the TGI is over 100 µM in [1]; over 100 µM in [2]; 75.9 µM in [3]; over 100 µM in [4]; over 100 µM in assay [5]; over 100 µM in assay [6]. Besides, the TGI in assay [7] was over 100 µM.

Consider `COc1ccc2nc(-c3cccs3)cc(C(O)CN3CCSCC3)c2c1` (stereo not drawn), for which the TGI in assay [1] was 51.3 µM; in assay [2] it was 37.6 µM; in assay [3], 45.3 µM; in assay [4], over 100 µM; in [6] it was 50.2 µM; in [7], over 100 µM.

Take `C#CCOCn1cnc2c(Cl)ncnc21`: the TGI in assay [1], in assay [2], in assay [3], in assay [4], in assay [5] and in assay [6] was over 100 µM each time. Also, the TGI in assay [7] was over 100 µM.

For `CCCCCCCCCCCC(=O)OCC1OC(n2cc(F)c(=O)[nH]c2=O)C(NC(=O)OCc2ccccc2)C(OC(=O)CCCCCCCCCCC)C1O` (stereo not drawn), the TGI in assay [1], in assay [2], in assay [3], in [4], in assay [5] and in assay [6] was over 100 µM each time. In [7], this compound returned a TGI of over 100 µM.

Turning to `NNC(=O)/C(=C/c1ccc(Cl)cc1Cl)NC(=O)c1ccccc1`, the TGI in [1], in assay [2], in assay [3], in assay [4], in [5] and in [6] was over 100 µM in each case. Moreover, in [7], the TGI is over 100 µM.

Take `O=c1/c(=C/c2ccccc2F)sc2nc3ccccc3n12`: the TGI in assay [1], in assay [2], in assay [3], in assay [4], in assay [5] and in assay [6] was over 100 µM throughout. Further, the TGI in assay [7] is over 100 µM.

Regarding `COc1ccc(-c2ccc(/C=N/n3c(COc4ccc(Cl)cc4Cl)nn(CN4CCOCC4)c3=S)o2)c([N+](=O)[O-])c1`, the GI50 was over 100 µM in assay [8]; 18.8 µM in [1]; 45.1 µM in assay [3]; 21.7 µM in [4]; 16.5 µM in [5]; 22.7 µM in assay [7]. For the same compound, the GI50 in [9] is 21.1 µM. In addition, the TGI in assay [8] is over 100 µM; in assay [1], 62.9 µM; in [3], over 100 µM; in [4], 78.8 µM; in assay [5], 30.1 µM; in [7], 67.4 µM. The TGI in assay [9] turned out to be 58.7 µM.

On to `O=[N+]([O-])C1C2C=CC(C2)[C@H]1c1ccco1` (stereo partly drawn), for which the TGI in assay [1], in assay [2], in [3], in assay [4], in assay [5] and in [6] was over 100 µM in each case. Moreover, the TGI in assay [7] is over 100 µM.

Take `COC(C(=O)[O][Ge]([CH3])([CH3])[CH3])c1ccccc1` (stereo not drawn): the GI50 in [1], in [2], in assay [3], in assay [4], in assay [5] and in assay [6] was over 100 µM in each case. Also, the GI50 in assay [7] was over 100 µM. Further, the TGI in [1], in assay [2], in assay [3], in assay [4], in assay [5] and in assay [6] was over 100 µM each time. The same compound returned a TGI in [7] of over 100 µM.

`CC1C=C(OC(=O)c2ccccc2)C(=O)C(n2cc(F)c(=O)[nH]c2=O)O1` (stereo not drawn): the TGI in assay [1], in [2], in assay [3], in assay [4], in assay [5] and in assay [6] was over 100 µM throughout. In assay [7], this compound returned a TGI of over 100 µM.

Regarding `CCN(CC)c1ccc(C(=O)c2ccccc2C(=O)O)c(O)c1`, the TGI in assay [1], in assay [2], in [3], in assay [4], in assay [5] and in assay [6] was over 100 µM each time. In addition, the TGI in assay [7] was over 100 µM.

On to `C/C(=N\NS(=O)(=O)c1ccccc1)c1ccc(Cl)c(Cl)c1`, for which the TGI in assay [1], in assay [2], in assay [4], in assay [5], in assay [6] and in [7] was over 100 µM in each case.

As to `Cc1c(C(=O)C/C(=N\O)C(=O)Nc2cc(Cl)c(Cl)cc2Cl)[n+](=O)c2ccccc2n1[O-]`, the TGI was determined as 32.7 µM in assay [1]; 20.9 µM in assay [2]; 16.2 µM in [3]; 39.4 µM in assay [4]; 17 µM in [5]; 31.3 µM in [6]. This compound had a TGI in [7] of over 100 µM.

Consider `CCCNC1=C(C(=O)OCC)C(=O)CO1`, for which the TGI in assay [1], in [2], in [4], in assay [5], in assay [6] and in [7] was over 100 µM each time.

These data come from PubChem BioAssay (NCI).
